Test results: ChEMBL document CHEMBL1201862, “PubChem BioAssay data set” (2004)
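Cells were grown in 96-well plates and exposed to each compound for 48 hours at five concentrations; endpoints were interpolated linearly between bracketing concentrations, or set to the highest concentration if not reached. GI50 is the concentration that inhibits growth by half.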 The source made the active and inactive calls. Rule as the data show it: active = GI50 up to about 1.1 µM and inactive = higher.

Key:
Test in all cases: DTP human tumour cell line panel, 48 h
[1] = test system: A498
[2] = test system: ACHN
[3] = test system: CCRF-CEM
[4] = test system: DMS-114
[5] = test system: DMS-273
[6] = test system: EKVX
[7] = test system: HCT-116
[8] = test system: HL-60
[9] = test system: HOP-62
[10] = test system: HOP-92
[11] = test system: HT-29
[12] = test system: IGROV-1
[13] = test system: K562
[14] = test system: KM-20L2
[15] = test system: KM12
[16] = test system: M14
[17] = test system: M19-MEL
[18] = test system: MOLT-4
[19] = test system: NCI-H23
[20] = test system: NCI-H460
[21] = test system: NCI-H522
[22] = test system: OVCAR-5
[23] = test system: OVCAR-8
[24] = test system: RXF 393
[25] = test system: RXF 631
[26] = test system: SF-295
[27] = test system: SK-MEL-28
[28] = test system: SK-OV-3
[29] = test system: SNB-19
[30] = test system: SNB-78
[31] = test system: SR
[32] = test system: TK-10
[33] = test system: U-251
[34] = test system: UACC-257
[35] = test system: UACC-62
[36] = test system: UO-31
[37] = test system: 786-0
[38] = test system: A549
[39] = test system: CAKI-1
[40] = test system: COLO 205
[41] = test system: DLD-1
[42] = test system: HCC 2998
[43] = test system: HCT-15
[44] = test system: LOX IMVI
[45] = test system: LXFL 529
[46] = test system: Malme-3M
[47] = test system: NCI-H226
[48] = test system: OVCAR-3
[49] = test system: OVCAR-4
[50] = test system: RPMI-8226
[51] = test system: SF-268
[52] = test system: SF-539
[53] = test system: SK-MEL-2
[54] = test system: SK-MEL-5
[55] = test system: SN12C
[56] = test system: SNB-75
[57] = test system: SW-620
[58] = test system: XF498

CC(=O)O[C@H]1CCC(C)=CCC[C@@]2(C)C(CC[C@@H]2[C@@H](C)/C=C/C(C)C)c2ccc(cc2C(=O)O)C1 (stereo partly specified)
GI50 [1]: 6.35 µM (inactive)
GI50 [2]: 3.6 µM (inactive)
GI50 [3]: 3.13 µM (inactive)
GI50 [4]: 4.49 µM (inactive)
GI50 [5]: 3.84 µM (inactive)
GI50 [6]: 11 µM (inactive)
GI50 [7]: 2.94 µM (inactive)
GI50 [8]: 1.73 µM (inactive)
GI50 [9]: 2.45 µM (inactive)
GI50 [10]: 2.84 µM (inactive)
GI50 [11]: 3.93 µM (inactive)
GI50 [12]: 2.96 µM (inactive)
GI50 [13]: 3.21 µM (inactive)
GI50 [14]: 3.67 µM (inactive)
GI50 [15]: 2.21 µM (inactive)
GI50 [16]: 5.02 µM (inactive)
GI50 [17]: 4.18 µM (inactive)
GI50 [18]: 1.92 µM (inactive)
GI50 [19]: 2.63 µM (inactive)
GI50 [20]: 3.12 µM (inactive)
GI50 [21]: 2.49 µM (inactive)
GI50 [22]: 3.28 µM (inactive)
GI50 [23]: 4.06 µM (inactive)
GI50 [24]: 3.11 µM (inactive)
GI50 [25]: 7.4 µM (inactive)
GI50 [26]: 2.9 µM (inactive)
GI50 [27]: 5.05 µM (inactive)
GI50 [28]: 3.6 µM (inactive)
GI50 [29]: 3.04 µM (inactive)
GI50 [30]: 3.33 µM (inactive)
GI50 [31]: 2.59 µM (inactive)
GI50 [32]: 3.45 µM (inactive)
GI50 [33]: 2.54 µM (inactive)
GI50 [34]: 4.59 µM (inactive)
GI50 [35]: 1.95 µM (inactive)
GI50 [36]: 2.03 µM (inactive)

O=C1OC(c2ccccc2)(c2ccccc2)c2ccc3ccc(F)cc3c21
GI50 [37]: > 100 µM (inactive)
GI50 [1]: > 100 µM (inactive)
GI50 [38]: 19.3 µM (inactive)
GI50 [2]: 49.8 µM (inactive)
GI50 [39]: 33.3 µM (inactive)
GI50 [3]: 31.3 µM (inactive)
GI50 [40]: > 100 µM (inactive)
GI50 [41]: > 100 µM (inactive)
GI50 [4]: 9.23 µM (inactive)
GI50 [5]: 7.21 µM (inactive)
GI50 [6]: 53.3 µM (inactive)
GI50 [42]: 37.2 µM (inactive)
GI50 [7]: 27 µM (inactive)
GI50 [43]: 35.5 µM
GI50 [8]: 9.4 µM (inactive)
GI50 [9]: > 100 µM (inactive)
GI50 [10]: 2.66 µM (inactive)
GI50 [11]: 13.6 µM (inactive)
GI50 [12]: > 100 µM (inactive)
GI50 [13]: 6.28 µM (inactive)
GI50 [14]: 21.8 µM (inactive)
GI50 [15]: > 100 µM (inactive)
GI50 [44]: 60.3 µM (inactive)
GI50 [45]: > 100 µM (inactive)
GI50 [16]: > 100 µM (inactive)
GI50 [17]: 20.7 µM (inactive)
GI50 [18]: > 100 µM (inactive)
GI50 [46]: > 100 µM (inactive)
GI50 [47]: > 100 µM (inactive)
GI50 [19]: 52.8 µM (inactive)
GI50 [20]: > 100 µM (inactive)
GI50 [21]: 51.1 µM (inactive)
GI50 [48]: 68.7 µM (inactive)
GI50 [49]: > 100 µM (inactive)
GI50 [22]: > 100 µM (inactive)
GI50 [23]: > 100 µM (inactive)
GI50 [50]: > 100 µM (inactive)
GI50 [24]: > 100 µM (inactive)
GI50 [25]: 51.4 µM (inactive)
GI50 [51]: > 100 µM (inactive)
GI50 [26]: 13 µM (inactive)
GI50 [52]: > 100 µM (inactive)
GI50 [27]: > 100 µM (inactive)
GI50 [53]: > 100 µM (inactive)
GI50 [54]: 20 µM (inactive)
GI50 [28]: > 100 µM (inactive)
GI50 [55]: > 100 µM (inactive)
GI50 [29]: > 100 µM (inactive)
GI50 [56]: 37.6 µM (inactive)
GI50 [31]: 10.7 µM (inactive)
GI50 [57]: 23.9 µM (inactive)
GI50 [32]: > 100 µM (inactive)
GI50 [33]: 77.1 µM (inactive)
GI50 [34]: 37.1 µM (inactive)
GI50 [35]: 26.9 µM (inactive)
GI50 [36]: 79.4 µM (inactive)
GI50 [58]: > 100 µM (inactive)

O=C1c2ccccc2C(=O)c2c1cc(S(=O)(=O)O)c(O)c2O [Alizarin Red S]
GI50 [37]: > 100 µM (inactive)
GI50 [1]: > 100 µM (inactive)
GI50 [38]: > 100 µM (inactive)
GI50 [2]: > 100 µM (inactive)
GI50 [39]: > 100 µM (inactive)
GI50 [3]: > 100 µM (inactive)
GI50 [40]: > 100 µM (inactive)
GI50 [41]: > 100 µM (inactive)
GI50 [4]: > 100 µM (inactive)
GI50 [6]: > 100 µM (inactive)
GI50 [42]: > 100 µM (inactive)
GI50 [7]: > 100 µM (inactive)
GI50 [43]: > 100 µM
GI50 [9]: > 100 µM (inactive)
GI50 [10]: 90.8 µM (inactive)
GI50 [11]: > 100 µM (inactive)
GI50 [12]: > 100 µM (inactive)
GI50 [13]: > 100 µM (inactive)
GI50 [15]: > 100 µM (inactive)
GI50 [44]: > 100 µM (inactive)
GI50 [45]: > 100 µM (inactive)
GI50 [16]: > 100 µM (inactive)
GI50 [17]: > 100 µM (inactive)
GI50 [18]: > 100 µM (inactive)
GI50 [47]: > 100 µM (inactive)
GI50 [19]: > 100 µM (inactive)
GI50 [20]: > 100 µM (inactive)
GI50 [21]: > 100 µM (inactive)
GI50 [48]: > 100 µM (inactive)
GI50 [49]: > 100 µM (inactive)
GI50 [22]: > 100 µM (inactive)
GI50 [23]: > 100 µM (inactive)
GI50 [50]: > 100 µM (inactive)
GI50 [24]: > 100 µM (inactive)
GI50 [25]: > 100 µM (inactive)
GI50 [51]: > 100 µM (inactive)
GI50 [26]: > 100 µM (inactive)
GI50 [52]: > 100 µM (inactive)
GI50 [27]: > 100 µM (inactive)
GI50 [53]: 32.4 µM (inactive)
GI50 [28]: > 100 µM (inactive)
GI50 [55]: > 100 µM (inactive)
GI50 [29]: > 10 µM (inactive)
GI50 [56]: > 100 µM (inactive)
GI50 [30]: > 100 µM (inactive)
GI50 [31]: > 100 µM (inactive)
GI50 [57]: > 100 µM (inactive)
GI50 [32]: > 100 µM (inactive)
GI50 [33]: > 100 µM (inactive)
GI50 [34]: > 100 µM (inactive)
GI50 [35]: > 100 µM (inactive)
GI50 [36]: > 100 µM (inactive)
GI50 [58]: 16.7 µM (inactive)
